From patent US11129870B2, “Compositions and methods for uncoupling TrkB receptor from PLC gamma 1 for the treatment of epilepsy and anxiety-like disorder” (DUKE UNIVERSITY, priority 2010, dated 2021)
Where no end group is shown, it is not given here. [ ]: non-standard residue; d: D form. pY = N[C@@H](Cc1ccc(OP(=O)(O)O)cc1)C(=O)O

What was measured:
Akt = assay: BDNF-mediated increase of p-Akt in cultured cortical neurons (western blot); format: cell-based, rat; conditions: 10 μM, 10-120 min pretreatment
[1] = system: spontaneous recurrent seizures; assay: SE-induced epilepsy: spontaneous recurrent seizures by video-EEG after 3 days of treatment following KA-SE; format: in vivo, mouse; conditions: for animals with initial spontaneous seizure within 3 days following SE: 10 mg/kg i.v. x3, n=8; for number of spontaneous seizures: n=8, mean±SEM; for spontaneous recurrent seizures per animal (range): for pY816 the six animals with seizures
Experimental: Surgery and microinfusion studies provided in Examples 10-14 were performed as described here. Surgery and microinfusion of KA into right amygdala of adult mice was performed as previously described (Liu, G. et al., (2013) Neuron 79:31-38). Briefly, mice were anesthetized with pentobarbital (60 mg/kg, intraperitoneally [i.p.]) and placed in a stereotaxic frame. A guide cannula was stereotactically placed above the right amygdala (coordinates from bregma: AP=−1.2 mm; ML=3.0 mm). A bipolar electrode was placed in the left dorsal hippocampus (coordinates from bregma: AP=−2.0 mm; ML=−1.6 mm; DV=−1.5 mm). A ground electrode connected to a screw was placed in the skull above the cerebellum. After a postoperative recovery period of 7 days, the animal was gently restrained and an infusion cannula was inserted into the right amygdala through the guide cannula at the depth of 3.7 mm below dura. Either KA (0.3 μg in 0.5 μl PBS) or vehicle control (0.5 μl of PBS) was infused into the right basolateral amygdala at the rate of 0.11 μl per minute. The infusion cannula was left in the right amygdala for two additional minutes before being withdrawn from the guide cannula. Animals were housed individually for time locked electroencephalogram (EEG) telemetry and video monitoring with food and water ad libitum.
Emergence of SE was typically evident in EEG recordings 5-10 min after KA infusion. The behavioral seizures associated with electrographic seizures typically consisted of immobility, followed by facial automatisms, unilateral or bilateral forelimb clonus, and whole body clonus. Tonic-clonic seizures with loss of posture and jumping also occurred during the seizures (Mouri, G. et al., (2008) Brain Res 1213:140-151). For experiments in which p816 or Scr was administered prior to SE, mice were monitored for 45 min following KA infusion. EEG patterns consistent with electrographic SE included any of the following: 1. discrete electrographic seizures; 2. waxing and waning epileptiform activity; 3. continuous, high amplitude, rapid spiking; 4. periodic epileptiform discharges on a relatively flat background as described by Treiman, D. M. et al., (1990) Epilepsy Res 5:49-60 and Walton, et. al., (1988) Exp Neurol 101:267-275. Behavioral patterns consistent with seizures included Classes 3-6 as described in the following section (Racine, R. J. (1972) Electroencephalogr Clin Neurophysiol 32:281-294; Borges, K. et al., (2003) Exp Neurol 182:21-34). The duration of behavioral and electrographic SE were determined by analyses of video and EEG data by trained observers blinded to treatment of mice. A similar method was used in experiments examining effects of mutations (trkB^PLC/PLC and PLCγ1^+/−) on SE induced by KA. For experiments in which p816 or Scr was administered following SE, diazepam (10 mg/kg, i.p.) was administered 40 minutes after the onset of SE followed by lorazepam (6 mg/kg, i.p.) one hour later to suppress SE and limit the mortality and morbidity of this model. Animals underwent continuous video-EEG monitoring 24 hr per day, 7 days per week for first two weeks post-SE (day 1-14). At the end of the second week post-SE, monitoring was discontinued and animals were returned to home cages. After a two-week interval, monitoring was resumed for an additional two weeks (day 29-42). Spontaneous recurrent seizures were identified by review of video-EEG files by independently by each of two trained readers blinded to treatment of mice. The consistency of identifying SRS between readers was ˜90%; in instances in which readers disagreed, the events were excluded from this study. SRS was defined electrographically as high frequency (>5 Hz), high amplitude (>2×baseline) rhythmic epileptiform activity with a minimal duration of 5 s and behaviorally with video-monitoring (see behavioral-seizure scoring). […]

anxiety-like behavior = assay: Light/dark box test of anxiety-like behavior 8 weeks after SE; format: in vivo, mouse; conditions: 8 weeks post-SE; Scr vs PBS controls, pY816 vs Scr
Experimental: It was therefore tested whether this SE-induced behavioral abnormality could also be prevented by treatment with pY816 initiated following SE. To address this question, following completion of video-EEG recording during days 29-42, anxiety-like behavior was assessed using the light-dark emergence test (Bourin, M. et al., (2003) Eur J Pharmacol 463:55-65).
Specifically, a plexiglas arena (40×40×40 cm) was placed in a room with homogenous illumination (˜300 lux). The arena was subdivided into sixteen 10×10 cm squares by lines marked on the floor. Each mouse was placed in the center of the open field and allowed to explore freely the apparatus for 5 minutes. The apparatus ([…]) consisted of two acrylic compartments. The dark compartment (30×40 cm) and light compartment (40×40×40 cm, brightly illuminated at 600 lux) were separated by a divider with a 5.5×5.5 cm opening at floor level. Mice were placed into the dark side and allowed to move freely between the two chambers with the door open for 5 minutes. During behavior tests, a video camera was mounted directly above the arena to monitor animal activity and movement. An investigator unaware of the treatment reviewed the video and recorded: 1) line crossing (frequency of crossing grid lines with all four paws) and the frequency of rearing (standing on hind legs or leaning against the walls of the arena) to assess locomotor activity in open field test; and 2) the latency to first entry into lighted compartment (entering the lighted side with all four paws) and the total time spent on the lighted side to assess anxiety-like behavior in light/dark box test.
Following completion of video-EEG monitoring for recurrent seizures, all KA-infused mice were subjected to open field and light/dark box tests at 8 weeks post-SE. Control animals underwent infusion of PBS into the amygdala and subsequently i.v. infusion of Scr or pY816 peptide and were tested 8 weeks after PBS infusion. No differences were found between Scr and pY816 treated control animals and these groups were combined for analyses.

Q: Which results are given for “YGRKKRRQRRR-LQNLAKASPVpYLDI (YGRKKRRQRRRLQNLAKASPV[pY]LDI) [pY816]”?
A: BDNF-mediated increase of the p-Akt/Akt ratio (quantified, FIG. 11) (Akt): Neither the Phospho-Tat-TrkBY816 nor the Scr-phospho-Tat-TrkBY816 peptide inhibited; latency to the onset of the first spontaneous seizure ([1]; 10 mg/kg i.v. immediately, 24 hr and 48 hr after SE, compared to control): delayed; animals with initial spontaneous seizure within 3 days following SE [1]: single; reduction in the number of spontaneous seizures compared to Scr ([1]; days 1-14 after SE): 86%; number of spontaneous seizures ([1]; days 1-14 after SE): 2.4±0.6; reduction in the number of spontaneous seizures compared to Scr ([1]; days 29-42 after SE): 90%; number of spontaneous seizures ([1]; days 29-42 after SE): 1.5±0.4; animals that exhibited no seizures ([1]; days 29-42 after SE, of eight treated): two; spontaneous recurrent seizures per animal (range) ([1]; days 29-42 after SE): 1-3 seizures; latency to enter the lighted compartment (anxiety-like behavior): significantly reduced latency; time spent in lighted compartment (anxiety-like behavior): spent increased time

Q: For “YGRKKRRQRRRLVApYQLKIAPNDLS (YGRKKRRQRRRLVA[pY]QLKIAPNDLS) [Scr, reference compound]”, which “BDNF-mediated increase of the p-Akt/Akt ratio (quantified, FIG. 11)” value (Akt) is on record?
A: Neither the Phospho-Tat-TrkBY816 nor the Scr-phospho-Tat-TrkBY816 peptide inhibited

Q: What about the “animals with initial spontaneous seizure within 3 days following SE” value [1] of the same substance?
A: 5 of 8

Q: What about the “number of spontaneous seizures” value ([1]; days 1-14 after SE) of the same substance?
A: 18.1±1.7

Q: What about the “number of spontaneous seizures” value ([1]; days 29-42 after SE) of the same substance?
A: 16.5±3.5

Q: What about the “spontaneous recurrent seizures per animal (range)” value ([1]; days 29-42 after SE) of the same substance?
A: 7-36 seizures

Q: And the “latency to enter the lighted compartment” value (anxiety-like behavior)?
A: prolonged latency

Q: And the “time spent in lighted compartment” value (anxiety-like behavior)?
A: spent less time
